The results in this text go back to ChEMBL document CHEMBL1201862, “PubChem BioAssay data set” (2004).

Holding throughout (assay): growth of human tumour cells (NCI), 48 h
The test system of test [1] is EKVX.
The subject of test [2] is HT-29.
Test [3] relates to UACC-257.
The subject of test [4] is SNB-75.
Test [5] deals with MDA-MB-231.
Test [6] has as its system RXF 393.
Test [7] deals with OVCAR-4.
Test [8] concerns MDA-MB-435.
Test [9] has as its system HOP-62.
The subject of test [10] is OVCAR-5.
Test [11] has as its system DU-145.
Test [12] concerns NCI-H23.
Test [13] concerns LOX IMVI.
Test [14] deals with HCT-15.
Test [15] deals with SW-620.
In test [16] the test system is OVCAR-3.
Test [17] has as its system NCI/ADR-RES.
Test [18] deals with CAKI-1.
For test [19], the system named is HCT-116.
Test [20] concerns UO-31.

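Five compound concentrations were applied to cells in 96-well plates for 48 hours; endpoints were derived by simple linear interpolation of the resulting dose-response curve. GI50 = concentration required for 50% inhibition of growth.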 The source made the active and inactive calls. Cut-off read from the data, not from the text of the source: active = GI50 up to about 1.1 µM and inactive = higher.

As to `O=C1/C(=C/c2ccco2)N=C(c2ccccc2)N1c1ccc(S(=O)(=O)Nc2nccs2)cc1`, the GI50 is 33.2 µM (inactive) in [1]; > 100 µM (inactive) in test [2]; 27.6 µM (inactive) in test [3]; > 100 µM (inactive) in test [4]; > 100 µM (inactive) in test [5]; 69.5 µM (inactive) in test [6]. Moreover, the GI50 in test [7] was 69.2 µM (inactive); in test [8], > 100 µM (inactive); in test [9] it was > 100 µM (inactive); in [10] it was > 100 µM (inactive); in test [11] it was > 100 µM (inactive); in [12], > 100 µM (inactive). Moreover, the GI50 in test [13] was > 100 µM (inactive); in [14], 28.9 µM; in test [15], > 100 µM (inactive); in [16] it was 83.9 µM (inactive); in test [17], > 100 µM (inactive); in test [18], > 100 µM (inactive). Besides, the GI50 is > 100 µM (inactive) in [19] and 57.1 µM (inactive) in [20].

In the case of `COC1CC(C)(NC(C)=O)C2OC(c3ccccc3)OCC2O1` (stereo not given), the GI50 in [1], in test [2], in [3], in test [4], in [5] and in [6] was > 100 µM (inactive) each time. In addition, the GI50 in [7], in [8], in test [9], in [10], in test [11] and in [12] was > 100 µM (inactive) each time. The GI50 in test [13] is > 100 µM (inactive); in test [14] it was > 100 µM; in test [15] it was > 100 µM (inactive); in test [16], > 100 µM (inactive); in test [17], > 100 µM (inactive); in [18] it was > 100 µM (inactive). For the same molecule, the GI50 in test [19] and in test [20] was > 100 µM (inactive) throughout.

Turning to `CC(=O)NC1C(OCC(=O)NCCNc2ccc([N+](=O)[O-])c3[nH]c4ccccc4c(=O)c23)C(O)C(CO)OC1(C)OCc1ccccc1` (stereo not given), the GI50 in test [1], in [2], in test [3], in [4], in test [5] and in test [6] was > 100 µM (inactive) in each case. Further, the GI50 in [7], in test [8], in test [9], in [10], in test [11] and in [12] was > 100 µM (inactive) in each case. For the same molecule, the GI50 was > 100 µM (inactive) in test [13]; > 100 µM in [14]; > 100 µM (inactive) in [15]; > 100 µM (inactive) in test [16]; > 100 µM (inactive) in test [17]; > 100 µM (inactive) in test [18]. Also, the GI50 in [19] and in test [20] was > 100 µM (inactive) throughout.

For `CCCCCCCCCCCCCCCCC(=O)NCC(=O)NCC(=O)NC(Cc1ccccc1)C(=O)Oc1ccc([N+](=O)[O-])cc1` (stereo not given), the GI50 in test [1] was 37.8 µM (inactive); in test [2], 29.3 µM (inactive); in test [3], 23.9 µM (inactive); in test [4], 45.2 µM (inactive); in test [5], 23.4 µM (inactive); in test [6], 23.4 µM (inactive). Also, the GI50 in test [7] was > 100 µM (inactive); in test [8] it was 58.5 µM (inactive); in [9], 22 µM (inactive); in [10], 27.5 µM (inactive); in test [11], > 100 µM (inactive); in [12], 73.1 µM (inactive). For the same molecule, the GI50 is 20.4 µM (inactive) in test [13]; 19.1 µM in [14]; 19.4 µM (inactive) in test [15]; > 100 µM (inactive) in [16]; 20.6 µM (inactive) in test [17]; 17.2 µM (inactive) in [18]. Moreover, the GI50 in [19] was 18.6 µM (inactive); in test [20], 67.9 µM (inactive).
